We go through 10 compounds from patent US20250147039A1, “Compounds for complexation of rare earth elements and/or s-, p-, d- block metals, their coordination compounds, peptide conjugates, method of their preparation and use thereof” (USTAV ORGANICKE CHEMIE A BIOCHEMIE AV CR V.V.I., priority 2021, published 2025).

Molecules are shown by their SMILES.

What all share (assay type): physicochemical
Data set [1] is described as follows: Dissociation of chelates in aq. 6.0M HCl at 80° C. (acid decomplexation kinetic inertness) (Chart 17).
A short description of data set [2]: Dissociation of chelates in aq. 0.1M HCl at 80° C. (acid decomplexation kinetic inertness) (Chart 19).
Data set [3] in a line: Dissociation of chelates in aq. 0.1M HCl at RT (acid decomplexation kinetic inertness) (Chart 20).
A short description of data set [4]: Dissociation of chelates in aq. 1.0M HCl at 80° C. (acid decomplexation kinetic inertness) (Chart 18).

As for `O=C1C[N@@]2CC[N@]3CC[N@@](CC[N@](CC2)Cc2cccc(n2)-c2cnnn2Cc2cc(-c4ccccc4)cc(n2)C3)CC(=O)[O][Dy][O]1` [TD866], the “fraction of intact chelate” value in data set [1] (1 month) came to 0%; in data set [1] (1 week), 0%; in data set [1] (1 hour) it was 95%; in data set [1] (1 day), 25%; in data set [2] (1 month) it was 100%; in data set [2] (1 week), 100%. Besides, the “fraction of intact chelate” value in data set [2] (1 hour), in data set [2] (1 day), in data set [3] (1 month), in data set [3] (1 week), in data set [3] (1 hour) and in data set [3] (1 day) was 100% each time. Besides, the “fraction of intact chelate” value stood at 87% in data set [4] (1 month), 96% in data set [4] (1 week), 100% in data set [4] (1 hour) and 99% in data set [4] (1 day).
For `O=C1C[N@@]2CC[N@]3CC[N@@](CC[N@](CC2)Cc2cccc(n2)-c2cnnn2Cc2cc(-c4ccccc4)cc(n2)C3)CC(=O)[O][Sm][O]1` [TD867], the “fraction of intact chelate” value in data set [1] (1 month) is 0%; in data set [1] (1 week) it was 0%; in data set [1] (1 hour), 0%; in data set [1] (1 day), 0%; in data set [2] (1 month) it was 1%; in data set [2] (1 week), 35%. For the same compound, the “fraction of intact chelate” value worked out at 99% in data set [2] (1 hour); 86% in data set [2] (1 day); 96% in data set [3] (1 month); 99% in data set [3] (1 week); 100% in data set [3] (1 hour); 100% in data set [3] (1 day). Also, the “fraction of intact chelate” value amounted to 0% in data set [4] (1 month), 0% in data set [4] (1 week), 62% in data set [4] (1 hour) and 0% in data set [4] (1 day).
For `O=C1C[N@@]2CC[N@]3CC[N@@](CC[N@](CC2)Cc2cccc(n2)-c2cnnn2Cc2cc(-c4ccccc4)cc(n2)C3)CC(=O)[O][Nd][O]1` [TD868], the “fraction of intact chelate” value in data set [1] (1 month), in data set [1] (1 week), in data set [1] (1 hour), in data set [1] (1 day), in data set [2] (1 month) and in data set [2] (1 week) was 0% each time. The “fraction of intact chelate” value was found to be 76% in data set [2] (1 hour); 0% in data set [2] (1 day); 2% in data set [3] (1 month); 54% in data set [3] (1 week); 99% in data set [3] (1 hour); 90% in data set [3] (1 day). Moreover, the “fraction of intact chelate” value in data set [4] (1 month), in data set [4] (1 week), in data set [4] (1 hour) and in data set [4] (1 day) was 0% each time.
As to `O=C1C[N@@]2CC[N@]3CC[N@@](CC[N@](CC2)Cc2cccc(n2)-c2cnnn2Cc2cc(-c4ccccc4)cc(n2)C3)CC(=O)[O][Ce][O]1` [TD870], the “fraction of intact chelate” value in data set [1] (1 month), in data set [1] (1 week), in data set [1] (1 hour), in data set [1] (1 day), in data set [2] (1 month) and in data set [2] (1 week) was 0% in each case. Moreover, the “fraction of intact chelate” value in data set [2] (1 hour) stood at 0%; in data set [2] (1 day), 0%; in data set [3] (1 month) it was 0%; in data set [3] (1 week) it was 0%; in data set [3] (1 hour) it was 95%; in data set [3] (1 day), 37%. The “fraction of intact chelate” value in data set [4] (1 month), in data set [4] (1 week), in data set [4] (1 hour) and in data set [4] (1 day) was 0% throughout.
Consider `O=C1C[N@@]2CC[N@]3CC[N@@](CC[N@](CC2)Cc2cccc(n2)-c2cn(nn2)Cc2cc(-c4ccccc4)cc(n2)C3)CC(=O)[O][Lu][O]1` [TD874], for which the “fraction of intact chelate” value in data set [1] (1 month), in data set [1] (1 week), in data set [1] (1 hour), in data set [1] (1 day), in data set [2] (1 month) and in data set [2] (1 week) was 0% throughout. In addition, the “fraction of intact chelate” value was found to be 0% in data set [2] (1 hour); 0% in data set [2] (1 day); 0% in data set [3] (1 month); 14% in data set [3] (1 week); 99% in data set [3] (1 hour); 68% in data set [3] (1 day). Also, the “fraction of intact chelate” value in data set [4] (1 month), in data set [4] (1 week), in data set [4] (1 hour) and in data set [4] (1 day) was 0% in each case.
Turning to `O=C1C[N@@]2CC[N@]3CC[N@@](CC[N@](CC2)Cc2cccc(n2)-c2cn(nn2)Cc2cc(-c4ccccc4)cc(n2)C3)CC(=O)[O][Gd][O]1` [TD875], the “fraction of intact chelate” value in data set [1] (1 month), in data set [1] (1 week), in data set [1] (1 hour), in data set [1] (1 day), in data set [2] (1 month) and in data set [2] (1 week) was 0% throughout. Moreover, the “fraction of intact chelate” value in data set [2] (1 hour) came to 0%; in data set [2] (1 day) it was 0%; in data set [3] (1 month), 0%; in data set [3] (1 week), 6%; in data set [3] (1 hour) it was 98%; in data set [3] (1 day), 58%. Further, the “fraction of intact chelate” value in data set [4] (1 month), in data set [4] (1 week), in data set [4] (1 hour) and in data set [4] (1 day) was 0% in each case.
As for `O=C([O-])CN1CCN2CCN(CC(=O)[O-])CCN(CC1)Cc1cccc(n1)-c1cnnn1Cc1cc(-c3ccccc3)cc(n1)C2.[Pb+2]` [TD876], the “fraction of intact chelate” value in data set [1] (1 month), in data set [1] (1 week), in data set [1] (1 hour), in data set [1] (1 day), in data set [2] (1 month) and in data set [2] (1 week) was 0% in each case. Further, the “fraction of intact chelate” value is 0% in data set [2] (1 hour); 0% in data set [2] (1 day); 0% in data set [3] (1 month); 0% in data set [3] (1 week); 6% in data set [3] (1 hour); 0% in data set [3] (1 day). The “fraction of intact chelate” value in data set [4] (1 month), in data set [4] (1 week), in data set [4] (1 hour) and in data set [4] (1 day) was 0% each time.
Consider `O=C1C[N@@]2CC[N@]3CC[N@@](CC[N@](CC2)Cc2cccc(n2)-c2cnnn2Cc2cc(-c4ccccc4)cc(n2)C3)CC(=O)[O][Cd][O]1` [TD880], for which the “fraction of intact chelate” value is 0% in data set [1] (1 month); 0% in data set [1] (1 week); 43% in data set [1] (1 hour); 0% in data set [1] (1 day); 100% in data set [2] (1 month); 100% in data set [2] (1 week). Moreover, the “fraction of intact chelate” value in data set [2] (1 hour), in data set [2] (1 day), in data set [3] (1 month), in data set [3] (1 week), in data set [3] (1 hour) and in data set [3] (1 day) was 100% in each case. In addition, the “fraction of intact chelate” value in data set [4] (1 month) was found to be 63%; in data set [4] (1 week) it was 90%; in data set [4] (1 hour) it was 100%; in data set [4] (1 day), 99%.
Consider `O=C([O-])CN1CCN2CCN(CC(=O)[O-])CCN(CC1)Cc1cccc(n1)-c1cnnn1Cc1cc(-c3ccccc3)cc(n1)C2.[Zn+2]` [TD890], for which the “fraction of intact chelate” value in data set [1] (1 month), in data set [1] (1 week), in data set [1] (1 hour), in data set [1] (1 day), in data set [2] (1 month) and in data set [2] (1 week) was 0% throughout. Besides, the “fraction of intact chelate” value in data set [2] (1 hour) worked out at 46%; in data set [2] (1 day) it was 0%; in data set [3] (1 month), 5%; in data set [3] (1 week) it was 54%; in data set [3] (1 hour), 100%; in data set [3] (1 day) it was 93%. The “fraction of intact chelate” value in data set [4] (1 month), in data set [4] (1 week), in data set [4] (1 hour) and in data set [4] (1 day) was 0% each time.
For the compound `O=C1C[N@@]2CC[N@]3CC[N@@](CC[N@](CC2)Cc2cccc(n2)-c2cn(nn2)Cc2cc(-c4ccccc4)cc(n2)C3)CC(=O)[O][Cd][O]1` [TD900], the “fraction of intact chelate” value in data set [1] (1 month), in data set [1] (1 week), in data set [1] (1 hour), in data set [1] (1 day), in data set [2] (1 month) and in data set [2] (1 week) was 0% each time. Further, the “fraction of intact chelate” value in data set [2] (1 hour) was 56%; in data set [2] (1 day), 0%; in data set [3] (1 month), 63%; in data set [3] (1 week) it was 91%; in data set [3] (1 hour) it was 100%; in data set [3] (1 day), 99%. Further, the “fraction of intact chelate” value in data set [4] (1 month), in data set [4] (1 week), in data set [4] (1 hour) and in data set [4] (1 day) was 0% in each case.
